Like-named read-outs stand apart in the source and are kept apart here.
Tests used:
[1] = target: T1, Shp1 (Homo sapiens, UniProt P29350); assay: Isothermal titration calorimetry, Shp1 WT; format: binding
T1 construct: the C-terminal truncated form of human Shp1 cDNA (His-Shp1; amino acids 1–529); made in house; host or cells: E. coli BL21(DE3)
T1 sequence (P29350 1-529 isoform P29350-3): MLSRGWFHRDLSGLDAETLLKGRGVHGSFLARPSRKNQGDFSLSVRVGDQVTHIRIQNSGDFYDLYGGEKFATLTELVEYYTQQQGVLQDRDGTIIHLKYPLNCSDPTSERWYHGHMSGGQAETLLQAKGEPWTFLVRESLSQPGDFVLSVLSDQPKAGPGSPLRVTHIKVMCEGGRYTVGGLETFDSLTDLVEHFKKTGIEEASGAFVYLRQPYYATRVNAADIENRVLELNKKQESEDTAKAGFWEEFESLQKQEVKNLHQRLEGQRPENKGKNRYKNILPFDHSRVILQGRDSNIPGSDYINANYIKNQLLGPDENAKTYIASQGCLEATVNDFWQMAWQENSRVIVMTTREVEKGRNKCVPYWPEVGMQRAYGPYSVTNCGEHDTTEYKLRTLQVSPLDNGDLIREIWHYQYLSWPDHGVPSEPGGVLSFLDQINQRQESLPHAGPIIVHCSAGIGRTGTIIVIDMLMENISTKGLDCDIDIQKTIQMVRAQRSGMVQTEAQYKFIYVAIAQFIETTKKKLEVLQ
Description: ITC measurements were performed by using a Nano-ITC III (TA instruments, New Castle, DE, USA) with a reaction cell volume of 1 ml kept at 25 °C. A protein solution of 10 μM was titrated into the calorimetric cell with a solution of 50–100 μM of the ligand GroPIns4P (Ins4P) in the syringe. A sequence of 16 injections of 15 μL volume was programmed with a stirring speed of 250 rpm at 500 s intervals. Protein samples were prepared with protein solutions at 25 °C in 20 mM Tris buffer pH 7.4 with 50 mM NaCl and 1 mM TCEP. To minimise the differences in buffer composition and pH between cell and syringe, both ligand and protein solutions were prepared with the same batch of buffer. The heat of dilution of the GroPIns4P into the buffer solution was measured in a separate experiment and appropriate corrections were made. The heat evolved after each ligand injection was obtained from the integral of the calorimetric signal. Raw data were integrated, corrected for non-specific heats and normalized for concentration. The equilibrium dissociation constant (KD), binding enthalpy (ΔbH) and binding stoichiometry (n) were obtained by nonlinear regression of the experimental data using a model of independent binding sites, by means of the NanoAnalyze software. Experiments were performed in duplicate.

[2] = test system: T2, Shp1 cSH2 domain; assay: NMR 1H-15N HSQC titration of cSH2 domain; format: binding, human; settings: fast exchange regime, cSH2:GroPIns4P up to 1:5
T2 construct: The purified C-terminal SH2 domain (cSH2) was selected for these studies; made in house
Description: A suite of triple resonance experiments (Additional file 1 Table S1) was used for assignment of the ^1H, ^15N and ^13C backbone resonances of the Shp1 cSH2 domain. All experiments were acquired on a 700 MHz Bruker Avance instrument equipped with a TCI cryoprobe. Assignment of the cSH2 domain backbone resonances was complete with the exception of the resonances of S109 and G175. ^15N cSH2 (200 μM) was titrated with GroPIns4P, and a series of ^1H–^15N-HSQC spectra were recorded at different cSH2:GroPIns4P ratios up to a 1:5 ratio. […] The ^1HN and ^15N chemical shift perturbations were estimated by using the following equation [23]: Δδ=ΔHN^2+ΔN/5^2/2^1/2
Where ΔHN and ΔN are the differences between the ^1H and ^15N chemical shifts of free cSH2 and cSH2 in the presence of GroPIns4P, respectively.

[3] = test system: Src; assay: Western blotting of Src and PLCγ phosphorylation in NIH3T3 cells; format: cell-based
Description: NIH3T3 and Raw 264.7 cells were cultured in DMEM supplemented with 2 mM L-glutamine, 50 U/mL penicillin, […] streptomycin, and 10% CS or heat-inactivated FBS (30 min at 55 °C), respectively. NIH3T3 cells were transfected with different plasmids using the Lipofectamine LTX/plus reagent according to the manufacturer’s instructions. For immunofluorescence experiments, NIH3T3 cells were seeded onto glass coverslips in 24-well plates at a concentration suitable for 70% confluence without transfection or 50% confluence in the case of Lipofectamine-based cell transfection. In the latter, approximately 24 h after seeding, NIH3T3 cells were transiently transfected with different plasmids with the Lipofectamine LTX/plus reagent following the manufacturer’s instructions. Before treatments, NIH3T3 cells were serum-starved in DMEM with 2 mM glutamine, 50 U/mL penicillin and streptomycin for 16–20 h. The cells were then treated with different stimuli and/or inhibitors, as indicated in the text and/or Figure legends. Addition of exogenous GroPIns4P was at 50 μM (unless otherwise indicated), a concentration eliciting an intracellular concentration of about 1.5 μM, as calculated from the Nernst equation (with T = 300 K, z = − 3, and Veq = − 30 mV, an average value for cultured, non-excitable cells).
(§1) NIH3T3 cells were washed with ice-cold PBS and lysed on ice in buffer containing 20 mM Tris-HCl, pH 8.0, 150 mM NaCl, 1% Triton-X100, 5 mM Na3VO4, 30 mM β-glycerophosphate and 10 mM NaF supplemented with the protease inhibitor cocktail and processed for SDS-PAGE. Westen blotting was performed with the relevant antibodies. For immunoprecipitation experiments, 2 μg of an anti-Shp1 antibody or 5 μg of an anti-Src antibody were added to 1 mg of NIH3T3 cell lysates at 4 °C and incubated overnight. The samples were then incubated with A or G protein agarose beads for 1 h at 4 °C. Western blotting was performed from the washed and denatured complexes.

[4] = test system: T3, Shp1 and Src; assay: Co-immunoprecipitation of Src with Shp1 in NIH3T3 cells; format: cell-based; settings: 50 μM for 5 min
T3 construct: expressed in transfected cells; host or cells: NIH3T3
Description: as §1

[5] = NIH3T3 overexpressing Shp1-C455S, 50 μM

Kd ([1]; ITC, 25 °C, Shp1 WT, read-out: KD): 300 nM
Kd ([1]; summary over ITC, Trp fluorescence and SPR competition, read-out: affinity of the binding): 300 to 800 nM
Compound: O=P(O)(O)OC1C(O)C(O)C(OP(=O)(O)OCC(O)CO)C(O)C1O (centres unmarked) [GroPIns4P, glycerophosphoinositol 4-phosphate]
exchange rate between bound and free cSH2 [2]: higher than 2 × 10^3 s^-1
phosphorylation of PLCγ on Tyr783 ([3]; NIH3T3, 50 μM): induced an increase in phosphorylation
Src activating Tyr418 phosphorylation ([3]; NIH3T3, 50 μM for 2 to 5 min): increased
Src inhibitory Tyr530 phosphorylation ([3]; NIH3T3, 50 μM for 2 to 5 min): markedly decreased
Src Tyr418 or PLCγ tyrosine phosphorylation [3, 5]: no increase
Src dephosphorylation (pTyr530) [3, 5]: failed to induce Src dephosphorylation
increase in the interaction between Shp1-C455S and Src ([4]; NIH3T3 over-expressing Shp1-C455S): 2.2 fold
change in Shp1-Src complex formation ([4]; NIH3T3 over-expressing Shp1 S118A/R138E/S140A): no change
increase of Shp1-Src interaction compared with the control ([4]; NIH3T3 over-expressing Shp1 WT): about 1.6 fold

Reference: article PMC6396489 (Cell Communication and Signaling : CCS, 2019)
